Paper PMC9019572, “Design, Synthesis, and Biological Evaluation of [1,2,4]triazolo[4,3-a] Pyrazine Derivatives as Novel Dual c-Met/VEGFR-2 Inhibitors” (Frontiers in Chemistry, 2022)

Key:
ERK1/2 and AKT = assay: Western blot, downstream ERK1/2 and AKT phosphorylation in A549 cells; format: cell-based, human; conditions: A549, 24 h, 1.00 μM
Description: (§1) Western blot was utilized to further analyze the effect of compound 17l on the downstream signal protein of c-Met and VEGFR-2. The detailed operations refer to the previous method of our research group ([Zhao et al., 2020]). […] The extracted protein was transferred to a PVDF membrane in ice bath conditions after 10% SDS polyacrylamide gel electrophoresis separating the protein by size. The PVDF membrane was rinsed with phosphate-buffered solution (PBST), shaken in a Petri dish three times for 3–5 min every time, and incubated with different target proteins (p-c-Met, p-VEGFR-2, p-ERK 1/2, p-AKT, and GADPH). Finally, the film was exposed and developed in a darkroom. Image Lab software (Molecular Dynamics, Sunnyvale, CA, USA) was utilized to analyze the shadow density of each band, which was then expressed as a percentage of GDPDH band density ([Zhao et al., 2020]).
(§2) We further verified the effect of compound 17l on c-Met and downstream signaling pathways. We treated A549 cell line with different doses of compound 17l for 24 h to measure its phosphorylation inhibition in different pathways.

PC-9 cells = assay: Antiproliferative activity, PC-9; format: cell-based; conditions: Homo sapiens
Description: (§3) The cell lines used in the experiment were available from the Cell Culture Collection of Chinese Academy of Sciences (Shanghai Institutes for Biological Sciences, Chinese Academy of Sciences). Referring to the previous experimental methods of our research, all cells were cultured in suitable medium such as DMEM or RPMI-1640 containing 10% fetal bovine serum at 37°C in 5% CO2 and propagated for 24 h. Then the compounds with different gradient concentrations were added into the medium and incubated for 72 h, and then MTT (thiazolyl blue tetrazolium bromide) with a concentration of 5 µg/ml was added to every well for 4 h at 37°C. The formazan crystals were dissolved in 100 µl of DMSO in each well. The absorbancy at 492 nm (for absorbance of MTT formazan) and 630 nm (for the reference wavelength) was measured with an ELISA reader. All compounds were tested three times in each of the cell lines. The results, expressed as inhibition rates or IC50 (half-maximal inhibitory concentration), were the averages of two determinations and calculated by using the Bacus Laboratories Incorporated Slide Scanner (Bliss) software.

A549 cells [1] = assay: Cell cycle assay by flow cytometry; format: cell-based, human; conditions: A549, 1.0 μM, 72 h; control 61.14%
Description: A549 cells were placed in 12-well plates at a density of 10^6/well with F-12 K containing 10% FBS as the medium, and the experiment was conducted on alternate days. Cells (1–5×10^6) were collected, centrifuged at 1,500 rpm for 5 min to remove the supernatant, washed with PBS twice, and gently mixed with 200 μl of cell cycle rapid detection reagent to make a single-cell suspension, which was detected by flow cytometry within 1 h.
We treated A549 cells with 1.0 μM compound 17l for 72 h and determined its effect on cell cycle by flow cytometry to further reveal the growth inhibition mechanism of the target compound on tumor cells. […] At the same time, the content of cell block rate decreased in S phase, but the change in G2/M phase was not obvious.

A549 cells [2] = assay: MTT antiproliferative assay, A549; format: cell-based; conditions: Homo sapiens, 72 h;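 also: formazan read-out dissolved in DMSO, each compound assayed three times, IC50 computed with Bliss software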
Description: The cell lines used in the experiment were available from the Cell Culture Collection of Chinese Academy of Sciences (Shanghai Institutes for Biological Sciences, Chinese Academy of Sciences). […] The formazan crystals were dissolved in 100 µl of DMSO in each well. […] All compounds were tested three times in each of the cell lines. The results, expressed as inhibition rates or IC50 (half-maximal inhibitory concentration), were the averages of two determinations and calculated by using the Bacus Laboratories Incorporated Slide Scanner (Bliss) software.

EGFR^WT = EGFR^WT (Homo sapiens, UniProt P00533); assay: EGFR^wt kinase inhibition assay; format: biochemical
Chain of EGFR^WT (P00533 25-1210): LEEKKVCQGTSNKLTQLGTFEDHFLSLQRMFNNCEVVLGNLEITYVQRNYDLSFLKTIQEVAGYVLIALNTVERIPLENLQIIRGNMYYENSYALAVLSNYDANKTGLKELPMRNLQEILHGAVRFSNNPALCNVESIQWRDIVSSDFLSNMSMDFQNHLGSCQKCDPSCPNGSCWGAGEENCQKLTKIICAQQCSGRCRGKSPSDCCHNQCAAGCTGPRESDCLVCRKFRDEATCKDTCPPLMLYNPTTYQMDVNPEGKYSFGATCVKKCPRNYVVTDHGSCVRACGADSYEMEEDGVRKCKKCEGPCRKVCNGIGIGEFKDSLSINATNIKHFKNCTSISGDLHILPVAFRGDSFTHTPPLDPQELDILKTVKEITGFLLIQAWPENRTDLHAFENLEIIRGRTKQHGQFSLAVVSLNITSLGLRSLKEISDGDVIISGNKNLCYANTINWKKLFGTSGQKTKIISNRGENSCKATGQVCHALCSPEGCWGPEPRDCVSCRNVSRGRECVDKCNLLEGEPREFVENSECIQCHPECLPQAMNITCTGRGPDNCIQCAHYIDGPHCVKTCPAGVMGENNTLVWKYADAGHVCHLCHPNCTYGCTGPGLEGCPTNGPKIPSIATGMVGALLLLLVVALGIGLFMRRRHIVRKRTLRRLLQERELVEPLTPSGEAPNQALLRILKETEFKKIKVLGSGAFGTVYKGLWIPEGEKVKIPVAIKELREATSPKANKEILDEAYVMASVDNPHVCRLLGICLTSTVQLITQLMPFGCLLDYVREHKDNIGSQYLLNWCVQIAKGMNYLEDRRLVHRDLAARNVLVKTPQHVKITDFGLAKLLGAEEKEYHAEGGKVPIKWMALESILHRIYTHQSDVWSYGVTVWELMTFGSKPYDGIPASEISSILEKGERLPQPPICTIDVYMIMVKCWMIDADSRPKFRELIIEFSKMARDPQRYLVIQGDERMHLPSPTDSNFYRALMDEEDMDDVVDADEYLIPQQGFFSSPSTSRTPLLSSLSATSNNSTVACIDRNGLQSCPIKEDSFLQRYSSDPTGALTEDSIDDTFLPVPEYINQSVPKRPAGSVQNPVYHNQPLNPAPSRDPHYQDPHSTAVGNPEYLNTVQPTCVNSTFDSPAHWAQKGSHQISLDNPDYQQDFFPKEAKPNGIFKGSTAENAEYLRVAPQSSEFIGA
Description: (§4) The kinase assay was performed by Pratzer Biotechnology Co. Ltd. (Changsha, China).

c-Met kinase = c-Met kinase (Homo sapiens, UniProt P08581); assay: c-Met kinase inhibition assay; format: biochemical
Chain of c-Met kinase (P08581 25-1390): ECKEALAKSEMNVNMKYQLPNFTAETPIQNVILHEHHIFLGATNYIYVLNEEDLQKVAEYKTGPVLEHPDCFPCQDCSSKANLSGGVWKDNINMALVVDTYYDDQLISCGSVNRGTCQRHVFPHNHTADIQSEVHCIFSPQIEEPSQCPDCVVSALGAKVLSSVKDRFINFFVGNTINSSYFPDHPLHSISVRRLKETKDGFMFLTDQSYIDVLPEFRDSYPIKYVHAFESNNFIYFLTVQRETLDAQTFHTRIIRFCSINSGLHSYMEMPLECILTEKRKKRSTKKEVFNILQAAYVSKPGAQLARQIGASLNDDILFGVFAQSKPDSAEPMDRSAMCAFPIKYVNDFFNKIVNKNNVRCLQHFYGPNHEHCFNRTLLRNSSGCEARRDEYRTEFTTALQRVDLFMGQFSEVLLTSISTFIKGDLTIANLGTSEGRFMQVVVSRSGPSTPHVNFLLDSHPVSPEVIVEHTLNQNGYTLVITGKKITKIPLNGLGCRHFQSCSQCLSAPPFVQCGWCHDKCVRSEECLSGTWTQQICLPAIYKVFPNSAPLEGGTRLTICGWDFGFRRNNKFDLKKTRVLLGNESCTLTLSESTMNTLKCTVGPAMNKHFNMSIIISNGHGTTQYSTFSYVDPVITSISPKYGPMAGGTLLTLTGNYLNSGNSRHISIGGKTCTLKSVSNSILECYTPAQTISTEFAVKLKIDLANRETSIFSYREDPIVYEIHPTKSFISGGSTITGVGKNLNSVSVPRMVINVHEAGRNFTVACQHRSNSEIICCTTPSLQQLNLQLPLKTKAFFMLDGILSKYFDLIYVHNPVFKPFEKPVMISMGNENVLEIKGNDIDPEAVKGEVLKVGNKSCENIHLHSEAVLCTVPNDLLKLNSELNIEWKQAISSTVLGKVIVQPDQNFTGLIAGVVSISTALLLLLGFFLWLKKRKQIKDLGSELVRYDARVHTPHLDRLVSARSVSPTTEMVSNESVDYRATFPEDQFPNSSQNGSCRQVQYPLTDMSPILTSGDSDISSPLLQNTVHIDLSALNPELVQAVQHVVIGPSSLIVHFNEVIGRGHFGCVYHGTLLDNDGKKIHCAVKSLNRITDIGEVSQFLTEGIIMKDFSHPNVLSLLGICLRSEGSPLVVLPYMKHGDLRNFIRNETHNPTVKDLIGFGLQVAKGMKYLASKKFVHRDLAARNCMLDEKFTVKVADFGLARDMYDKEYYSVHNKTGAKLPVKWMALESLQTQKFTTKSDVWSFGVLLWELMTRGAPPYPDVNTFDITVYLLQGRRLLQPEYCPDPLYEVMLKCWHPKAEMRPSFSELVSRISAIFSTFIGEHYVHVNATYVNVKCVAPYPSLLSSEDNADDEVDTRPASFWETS

p-VEGFR-2 (Tyr1059) = assay: Western blot, p-VEGFR-2 in A549 cells; format: cell-based, human; conditions: A549, 24 h, different concentrations
Description: as §1, §2

Hela cells = assay: MTT antiproliferative assay, Hela; format: cell-based; conditions: Homo sapiens; MTT, 72 h, Hela cells; read-out: IC50 Hela
Description: as §3

H1975 cells = assay: Antiproliferative activity, H1975; format: cell-based; conditions: Homo sapiens, NCI-H1975
Description: as §3

p-c-Met (Tyr1003) = assay: Western blot, p-c-Met in A549 cells; format: cell-based, human; conditions: A549, 24 h, different concentrations
Description: as §1, §2

VEGFR-2 = VEGFR-2 (Homo sapiens, UniProt P35968); assay: VEGFR-2 kinase inhibition assay; format: biochemical
Chain of VEGFR-2 (P35968 20-1356): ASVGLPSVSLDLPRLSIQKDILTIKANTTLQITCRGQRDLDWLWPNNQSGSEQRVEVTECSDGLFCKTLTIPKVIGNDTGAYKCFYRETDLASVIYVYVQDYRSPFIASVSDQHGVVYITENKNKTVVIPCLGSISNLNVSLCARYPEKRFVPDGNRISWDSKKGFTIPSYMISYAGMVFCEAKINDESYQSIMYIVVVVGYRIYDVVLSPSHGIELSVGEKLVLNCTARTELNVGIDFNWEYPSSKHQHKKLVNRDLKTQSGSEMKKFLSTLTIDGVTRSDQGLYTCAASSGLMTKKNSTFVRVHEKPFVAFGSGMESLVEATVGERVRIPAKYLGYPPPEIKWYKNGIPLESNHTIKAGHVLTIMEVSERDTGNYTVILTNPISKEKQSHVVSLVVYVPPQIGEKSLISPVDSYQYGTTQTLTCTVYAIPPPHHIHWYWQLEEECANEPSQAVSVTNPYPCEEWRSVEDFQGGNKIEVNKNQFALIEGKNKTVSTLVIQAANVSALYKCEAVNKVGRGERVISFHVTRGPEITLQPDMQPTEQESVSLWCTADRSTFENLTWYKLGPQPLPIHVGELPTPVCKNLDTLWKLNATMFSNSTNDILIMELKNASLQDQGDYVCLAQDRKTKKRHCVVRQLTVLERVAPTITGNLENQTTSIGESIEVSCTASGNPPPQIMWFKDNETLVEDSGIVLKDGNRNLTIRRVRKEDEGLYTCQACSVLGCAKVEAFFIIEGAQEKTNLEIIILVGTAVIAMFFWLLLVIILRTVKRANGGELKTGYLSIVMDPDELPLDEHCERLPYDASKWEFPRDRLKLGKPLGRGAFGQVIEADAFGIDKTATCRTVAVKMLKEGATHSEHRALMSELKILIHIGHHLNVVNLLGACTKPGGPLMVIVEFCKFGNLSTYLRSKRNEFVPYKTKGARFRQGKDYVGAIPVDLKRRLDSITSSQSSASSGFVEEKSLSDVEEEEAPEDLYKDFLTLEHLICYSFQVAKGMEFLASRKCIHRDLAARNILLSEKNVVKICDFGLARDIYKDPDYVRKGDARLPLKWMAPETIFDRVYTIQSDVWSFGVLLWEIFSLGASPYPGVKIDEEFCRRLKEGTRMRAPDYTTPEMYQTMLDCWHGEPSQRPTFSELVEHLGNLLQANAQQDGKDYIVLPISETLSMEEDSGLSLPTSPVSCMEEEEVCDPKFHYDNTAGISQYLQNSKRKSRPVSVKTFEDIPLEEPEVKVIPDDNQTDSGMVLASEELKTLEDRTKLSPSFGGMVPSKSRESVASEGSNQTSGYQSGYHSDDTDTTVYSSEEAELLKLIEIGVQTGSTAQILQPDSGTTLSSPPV
Description: as §4

H460 cells = assay: Antiproliferative activity, H460; format: cell-based; conditions: Homo sapiens, NCI-H460
Description: as §3

A549 cells [3] = assay: Annexin V/PI apoptosis assay by flow cytometry; format: cell-based, human; conditions: 72 h; for Q1-LR: control 1.68%; for Q1-UL: control 1.87%; for Q1-UR: control 2.05%; for total apoptosis rate: control 3.73%; for Q1-LL: control 94.40%
Description: The cell apoptosis assay was performed by Pratzer Biotechnology Co. Ltd. (Changsha, China). After A549 cells were resuscitated, the cells were cultured in F-12 K medium containing 10% FBS and 1% pen/strep in incubator with 5% CO2 at 37°C. A549 cells, being in the logarithmic growth phase, were digested with […] and laid in six-well plates with a density of 2 × 10^5/well, and the cells were collected centrifugally after 72 h of treatment with each compound. The cells were washed twice with PBS, which was precooled to 4°C. Then the cells were suspended with 500 μl of buffer, and the concentration was adjusted to 10^6/ml. A 100-μl suspension was placed in a 5-ml flow tube, adding 5 µl of Annexin V-APC, adding 5 μl of propidiμm iodide, and the mixture was mixed and incubated at room temperature without light for 15 min detecting cell apoptosis by flow cytometry (FACS).
The assay of annexin V/PI staining was performed to deeper research the mechanism of apoptosis induced by compound 17l in A549 cells.

sheep red blood cells = assay: Hemolytic test; conditions: 16–256 μg/ml, at the highest concentration within the study range
Description: The hemolytic toxicity of 17l was studied with 1% Triton and 0.9% normal saline, and the former was a positive control, and the latter was a negative control. […] (1%), 0.9% normal saline, and compound 17l of different concentrations prepared in 0.9% normal saline reacted with the prepared sheep red blood cells, respectively. Photos were taken, and the absorbance value was measured by ultraviolet spectrophotometer at a wavelength of 540 nm, and hemolysis ratio (hemolysis %) was calculated according to the following formula ([Guo et al., 2017]). The experiment was repeated twice in parallel. Hemolysis %=Abs(experimental group)−Abs(negative control)/Abs(positive control)−Abs(negative control)
The best compound 17l with antiproliferative activity and kinase inhibition activity was selected to detect its hemolytic toxicity at a gradient concentration of 16–256 μg/ml, and the safety of intravenous administration was preliminarily investigated. […] Its hemolytic toxicity meets the requirements of intravenous administration, which provides a basis for further in vivo research.

MCF-7 cells = assay: MTT antiproliferative assay, MCF-7; format: cell-based; conditions: Homo sapiens, MCF7; MTT, 72 h, MCF-7 cells; read-out: IC50 MCF-7
Description: as §3

SMILES: Cc1nnc2c(Oc3ccc(NC(=O)c4cnn(-c5ccc(Cl)cc5)c4C(F)(F)F)cc3F)nccn12 [17l]
- phosphorylation protein of downstream signals ERK1/2 and AKT (ERK1/2 and AKT): significantly inhibited
- IC50 (PC-9 cells): 38200 ± 1580 nM
- cell block rate in G0/G1 phase (A549 cells [1]): 76.14%
- IC50 (A549 cells [2]): 980 ± 80 nM
- IC50 (EGFR^WT): > 10000 nM
- IC50 (c-Met kinase): 26 nM
- inhibitory effect on p-VEGFR-2 (Tyr1059) (p-VEGFR-2 (Tyr1059)): not obvious
- IC50 (Hela cells): 1280 ± 250 nM
- IC50 (H1975 cells): 15300 ± 1180 nM
- protein levels of p-c-Met (Tyr1003) (p-c-Met (Tyr1003)): inhibited
- IC50 (VEGFR-2): 2600 nM
- IC50 (H460 cells): 5860 ± 770 nM
- Q1-LR (A549 cells [3]; A549, 0.25 μM): 2.15%
- Q1-UL (A549 cells [3]; A549, 0.25 μM): 4.27%
- Q1-UR (A549 cells [3]; A549, 0.25 μM): 2.71%
- total apoptosis rate (A549 cells [3]; A549, 0.25 μM): 4.86%
- Q1-LL (A549 cells [3]; A549, 0.25 μM): 90.88%
- Q1-LR (A549 cells [3]; A549, 0.50 μM): 3.07%
- Q1-UL (A549 cells [3]; A549, 0.50 μM): 1.53%
- Q1-UR (A549 cells [3]; A549, 0.50 μM): 3.38%
- total apoptosis rate (A549 cells [3]; A549, 0.50 μM): 6.45%
- Q1-LL (A549 cells [3]; A549, 0.50 μM): 92.02%
- Q1-LR (A549 cells [3]; A549, 1.00 μM): 5.52%
- Q1-UL (A549 cells [3]; A549, 1.00 μM): 0.30%
- Q1-UR (A549 cells [3]; A549, 1.00 μM): 6.09%
- total apoptosis rate (A549 cells [3]; A549, 1.00 μM): 11.61%
- Q1-LL (A549 cells [3]; A549, 1.00 μM): 88.09%
- hemolytic rate (sheep red blood cells): less than 5%
- IC50 (MCF-7 cells): 1050 ± 170 nM
